Results published in patent US12097192B2 (Corcept Therapeutics Incorporated, priority 2019, dated 2024).

Assays:
[1] = Relacorilant in healthy subjects (human volunteers): tolerability and steady state; type: in vivo
[2] = tested on: Cushing's syndrome patients; experiment: Cushing's syndrome patient study: POMC/proACTH and HPA axis; type: in vivo, human; conditions: for POMC and proACTH mean change from Baseline to Last Observed: All Subjects
Text: (§1) All patients gave informed consent before participating in any study-related procedures. […] The study protocol called for patient visits to the study site at screening, on Day 1 (baseline), Weeks 2, 4, 6, 8, 10, and 12, and after a 4-week follow-up period for Group 1. For Group 2, the protocol called for patient visits to the study site at screening, on Day 1 (baseline), Weeks 2, 4, 6, 8, 10, 12, 14, and 16, and after a 4-week follow-up period. Patient dosing will be done at home, except on days of study visits. […] It ignores noncompliance, protocol deviations, withdrawal, and anything that happens after randomization. In contrast, per-protocol (PP) analysis refers to inclusion in the analysis of only those patients who strictly adhered to the protocol. The PP analysis provides an estimate of the true efficacy of an intervention, i.e., among those who completed the treatment as planned.

[3] = tested on: Cushing's syndrome patients; experiment: Cushing's syndrome patient study: absolute eosinophils and lymphocytes; type: in vivo, human; conditions: All Subjects, mITT
Text: All patients gave informed consent before participating in any study-related procedures. […] The study protocol called for patient visits to the study site at screening, on Day 1 (baseline), Weeks 2, 4, 6, 8, 10, and 12, and after a 4-week follow-up period for Group 1. For Group 2, the protocol called for patient visits to the study site at screening, on Day 1 (baseline), Weeks 2, 4, 6, 8, 10, 12, 14, and 16, and after a 4-week follow-up period. Patient dosing will be done at home, except on days of study visits. […] The safety protocol also included assessments by physical examination findings, vital signs, ECG results, pregnancy tests, clinical laboratory test results (hematology and chemistry panels), adverse events (AEs), and concomitant medications. […] It ignores noncompliance, protocol deviations, withdrawal, and anything that happens after randomization. In contrast, per-protocol (PP) analysis refers to inclusion in the analysis of only those patients who strictly adhered to the protocol. The PP analysis provides an estimate of the true efficacy of an intervention, i.e., among those who completed the treatment as planned.

[4] = tested on: Cushing's syndrome patients; experiment: Cushing's syndrome patient study: glucose control / hyperglycemia response; type: in vivo, human; conditions: for Fructosamine, IGT mean change from Baseline to Last Observed / HOMA-IR, IGT mean change from Baseline to Last Observed / AUCglucose mean change from Baseline to Last Observed / AUCinsulin mean change from Baseline to Last Observed: All Subjects
Text: as §1, with “visits. Response criteria for hyperglycemia were changes from baseline in glucose tolerance as measured by: ≥0.5% decrease in HbA1c, normalization or ≥50 mg/dL decrease in 2-hr OGTT glucose, or decrease in total daily insulin (≥25%) or sulfonylurea dose (≥50%). Response criteria for hypertension (HTN) was a ≥5 mm Hg decrease in mean systolic and/or diastolic blood pressure (SBP/DBP).” for “visits.”

[5] = tested on: Cushing's syndrome patients; experiment: Cushing's syndrome patient study: bone markers; type: in vivo, human; design: Serμm Bone Alkaline Phosphatase mean change from Baseline to Last Observed: unit not given here; conditions: All Subjects
Text: as §1

[6] = tested on: Cushing's syndrome patients; experiment: Cushing's syndrome patient study: weight loss; type: in vivo, human
Text: All patients gave informed consent before participating in any study-related procedures.

[7] = mITT, Group 2 (250-400 mg/day, 16 weeks)
[8] = mPP, Group 2 (250-400 mg/day, 16 weeks)
[9] = Group 1 (100-200 mg/day, 12 weeks)
[10] = Group 2 (250-400 mg/day, 16 weeks)
[11] = mITT, Group 1 (100-200 mg/day, 12 weeks)
[12] = mPP, Group 1 (100-200 mg/day, 12 weeks)

With `Cn1cc(S(=O)(=O)N2CCC3=Cc4c(cnn4-c4ccc(F)cc4)C[C@]3(C(=O)c3cc(C(F)(F)F)ccn3)C2)cn1` [relacorilant, (R)-(1-(4-fluorophenyl)-6-((1-methyl-1H-pyrazol-4-yl)sulfonyl)-4,4a,5,6,7,8-hexahydro-1H-pyrazolo[3,4-g]isoquinolin-4a-yl) (4-(trifluoromethyl)pyridin-2-yl)methanone] the “tolerability of 14 days of dosing” value ([1]; human subjects, 14 days at 50 mg, 150 mg and 250 mg) was “well-tolerated”, the “achievement of steady state levels” value ([1]; human volunteers, daily dosing) was ≤ 7 days and the “tolerability of single doses” value ([1]; human, in vivo) was “well-tolerated”. For the same compound, the platelet count ([1]; some healthy subjects, non-dose-dependent, resolved by study end) was “transient reduction in platelet count”, the “adverse events at 500 mg” value ([1]; some subjects who received 500-mg relacorilant) was “(non-serious) musculoskeletal adverse events” and the “adverse events with repeat doses” value ([1]; some subjects, repeat doses up to 250 mg) was “mild to moderate musculoskeletal AEs”. For the same compound, the “POMC and proACTH mean change from Baseline to Last Observed” value (“POMC and proACTH mean change” for short) [2, 7] was 7.91 pmol/L, the “POMC and proACTH mean change” value ([2]; mITT, Overall) was 7.91 pmol/L and the “POMC and proACTH mean change” value [2, 8] was 7.91 pmol/L. The “POMC and proACTH mean change” value ([2]; mPP, Overall) was 7.91 pmol/L, the “restoration of the suppressed HPA axis” value ([2]; patients with adrenal Cushing syndrome) was “half of the cases” and the “Absolute Eosinophils mean change from Baseline to Last Observed” value (shortened to “Absolute Eosinophils mean change”) [3, 9] was 0.05 10^{super 9. The “Absolute Lymphocytes mean change from Baseline to Last Observed” value (“Absolute Lymphocytes mean change” below) [3, 9] was −0.15 10^{super 9, the “Absolute Eosinophils mean change” value [3, 10] was 0.05 10^{super 9 and the “Absolute Lymphocytes mean change” value [3, 10] was 0.26 10^{super 9. For the same compound, the “Absolute Eosinophils mean change” value ([3]; Overall) was 0.05 10^{super 9, the “Absolute Lymphocytes mean change” value ([3]; Overall) was 0.05 10^{super 9 and the “Fructosamine, IGT mean change from Baseline to Last Observed” value (from here on “Fructosamine, IGT mean change”) [4, 11] was -6.85 µmol/L. For the same compound, the “HOMA-IR, IGT mean change from Baseline to Last Observed” value (“HOMA-IR, IGT mean change from Baseline” below) [4, 11] was 0.05, the “Fructosamine, IGT mean change” value [4, 7] was -21.58 µmol/L and the “HOMA-IR, IGT mean change from Baseline” value [4, 7] was −3.2. For the same compound, the “Fructosamine, IGT mean change” value ([4]; mITT, Overall) was -13.92 µmol/L, the “HOMA-IR, IGT mean change from Baseline” value ([4]; mITT, Overall) was −1.58 and the “Fructosamine, IGT mean change” value [4, 12] was -8.08 µmol/L. For the same compound, the “HOMA-IR, IGT mean change from Baseline” value [4, 12] was 0.39, the “Fructosamine, IGT mean change” value [4, 8] was -18.92 µmol/L and the “HOMA-IR, IGT mean change from Baseline” value [4, 8] was −3.28. The “Fructosamine, IGT mean change” value ([4]; mPP, Overall) was -13.28 µmol/L, the “HOMA-IR, IGT mean change from Baseline” value ([4]; mPP, Overall) was −1.37 and the “AUCglucose mean change from Baseline to Last Observed” value (from here on “AUCglucose mean change from Baseline”) [4, 11] was -3.11 mmol·h/L. For the same compound, the “AUCinsulin mean change from Baseline to Last Observed” value (“AUCinsulin mean change from Baseline” for short) [4, 11] was −33.28 hr * μU/mL, the “AUCglucose mean change from Baseline” value [4, 7] was -0.8 mmol·h/L and the “AUCinsulin mean change from Baseline” value [4, 7] was −32.26 hr * μU/mL. The “AUCglucose mean change from Baseline” value ([4]; mITT, Overall) was -1.96 mmol·h/L, the “AUCinsulin mean change from Baseline” value ([4]; mITT, Overall) was −32.77 hr * μU/mL and the “AUCglucose mean change from Baseline” value [4, 12] was -3.63 mmol·h/L. The “AUCinsulin mean change from Baseline” value [4, 12] was −38.79 hr * μU/mL, the “AUCglucose mean change from Baseline” value [4, 8] was -1.24 mmol·h/L and the “AUCinsulin mean change from Baseline” value [4, 8] was −37.39 hr * μU/mL. The “AUCglucose mean change from Baseline” value ([4]; mPP, Overall) was -2.48 mmol·h/L, the “AUCinsulin mean change from Baseline” value ([4]; mPP, Overall) was −38.12 hr * μU/mL and the “AUCglucose in patients with hyperglycemia” value ([4]; Cushing's syndrome patients) was “statistically significant reduction”. For the same compound, the hyperglycemia response rate ([4]; HD group (doses up to 400 mg), week 16) was 50%, the hyperglycemia response rate ([4]; LD group (doses up to 200 mg), week 12) was 15.4% and the “patients with hyperglycaemia showing glycaemic improvement (responders/patients)” value ([4]; doses up to 400 mg) was 6/12. The “Serμm Bone Alkaline Phosphatase mean change from Baseline to Last Observed” value [5, 11] was 1.82, the “Serμm Osteocalcin mean change from Baseline to Last Observed” value (“Serμm Osteocalcin mean change” for short) [5, 11] was 4.57 µg/L and the “Urinary NTx mean change from Baseline to Last Observed” value (“Urinary NTx mean change from Baseline” below) [5, 11] was 2.21 nmolBCE/mmol. The “Serμm Bone Alkaline Phosphatase mean change from Baseline to Last Observed” value [5, 7] was −1.09, the “Serμm Osteocalcin mean change” value [5, 7] was 1.33 µg/L and the “Urinary NTx mean change from Baseline” value [5, 7] was 0.63 nmolBCE/mmol. The “Serμm Bone Alkaline Phosphatase mean change from Baseline to Last Observed” value ([5]; mITT, Overall) was 0.41, the “Serμm Osteocalcin mean change” value ([5]; mITT, Overall) was 3 µg/L and the “Urinary NTx mean change from Baseline” value ([5]; mITT, Overall) was 1.37 nmolBCE/mmol. For the same compound, the “Serμm Bone Alkaline Phosphatase mean change from Baseline to Last Observed” value [5, 12] was 1.82, the “Serμm Osteocalcin mean change” value [5, 12] was 4.68 µg/L and the “Urinary NTx mean change from Baseline” value [5, 12] was 2.21 nmolBCE/mmol. The “Serμm Bone Alkaline Phosphatase mean change from Baseline to Last Observed” value [5, 8] was −1.09, the “Serμm Osteocalcin mean change” value [5, 8] was 1.33 µg/L and the “Urinary NTx mean change from Baseline” value [5, 8] was 0.63 nmolBCE/mmol. The “Serμm Bone Alkaline Phosphatase mean change from Baseline to Last Observed” value ([5]; mPP, Overall) was 0.41, the “Serμm Osteocalcin mean change” value ([5]; mPP, Overall) was 3.06 µg/L and the “Urinary NTx mean change from Baseline” value ([5]; mPP, Overall) was 1.37 nmolBCE/mmol. The average weight loss ([6]; doses up to 200 mg daily, within 3 months) was 2.2 kg, the average weight loss ([6]; doses up to 400 mg daily, within 3 months) was 5.1 kg and the weight loss ([6]; many of the patients) was “Some weight loss”. For the same compound, the weight changes ([6]; within 3 months, in half of the patients) was “significant weight changes”.
